The results in this text go back to patent publication US20220372014A1, “NEUROPROTECTIVE COMPOUNDS AND METHODS OF USE THEREOF” (The Johns Hopkins University, priority 2019, published 2022).

Where a SMILES comes first, the peptide text is derived from it. The star is where a group is joined. Cbz = O=C(OCc1ccccc1)*; CH2F = FC*

The subject of test [1] is SH-SY5Y cells. Nature of the test: Staurosporine (STS)-induced apoptotic cell death, Alamar blue. Conditions: 0.5 μM STS. The format is cell-based. As to the method: (§1) Graphs represent mean±s.e.m. ***P<0.0005, two-way ANOVA followed by Tukey's post hoc test (n=3). A PARP inhibitor, ABT-888 is used for the positive control. FIGS. 12B and 12C show in vitro oxidoreductase and tautomerase activity of MIF/PAAN with compound 41, 56, 76, or 77. FIGS. 12D and 12E show Alamar blue cell viability assay from SH-SY5Y cells pre-incubated with compound 41, 56, 76, or 77 in response to 0.5 μM staurosporine (STS) or from HT 22 cells incubated with 1 ng/ml of TNF-α with 50 μM z-VAD. A pan caspase inhibitor, z-VAD or necrostatin (Nec-1) is used for the positive control and PARP inhibitor, ABT-888 is used for negative control. Bars represent mean±s.e.m. ***P<0.0005, two-way ANOVA followed by Tukey's post hoc test (n=3). […] Bars represent mean±s.e.m. **P<0.005, ***P<0.0005, two-way ANOVA followed by Tukey's post hoc test (n=3).
(§2) FIGS. 14A-14G show the characterization of compound 121. […] Bars represent means±s.e.m. ***P<0.0005, two-way ANOVA followed by Tukey's post hoc test (n=4). […] Bars represent mean±s.e.m. ***P<0.0005, two-way ANOVA followed by Tukey's post hoc test (n=4). […] Bars represent means±s.e.m. **P<0.005, ***P<0.0005, one-way ANOVA followed by Tukey's post hoc test (n=3). […] Bar represent mean±s.e.m. ***P<0.0005, one-way ANOVA followed by Tukey's post hoc test (n=3). […] Quantification of inhibition of PARP-1 activity by compound 56, compound 121 and ABT-888 is shown. Graphs represent mean±s.e.m. ***P<0.0005, two-way ANOVA followed by Tukey's post hoc test (n=3). FIGS. 14F and 14G show Alamar blue cell viability assay from SH-SY5Y cells pre-incubated with either compound 56 or 121 in response to (14F) 0.5 μM staurosporine (STS) or (14G) from HT 22 cells incubated with 1 ng/ml of TNF-α with 50 μM z-VAD. Bars represent mean±s.e.m. ***P<0.0005, two-way ANOVA followed by Tukey's post hoc test (n=5).
(§3) Cell death and viability assessment. Primary cultured cortical neurons were treated with 5 μg/ml of α-syn PFF for 14 days and cell death was determined by staining of all nuclei with 7 μM Hoechst 33342 and dead cell nuclei with 2 μM propidium iodide (PI) (Invitrogen). The numbers of total and dead cells were counted with the Axiovision 4.6 software (Carl Zeiss). Cell viability was determined by fluorescence at an excitation wavelength 570 nm and an emission wavelength 585 nm using Alamar Blue (Invitrogen).

Another test relates to HT 22 cells. Nature of the test: TNF-α and z-VAD-induced necroptosis, Alamar blue. To be noted: 1 ng/ml TNF-α with 50 μM z-VAD. The format is cell-based. As for the experimental part: as §1, §2, §3
On the technique in general: Resazurin is reduced to fluorescent resorufin, in cell work by metabolically active cells.

In a further test the test system is cortical neurons. Nature of the test: Nuclear translocation of AIF and PAAN/MIF after α-syn PFF treatment in cortical neurons (subcellular fractionation). The format is cell-based, mouse. Conditions: primary neuronal cultures. The text has this:
FIGS. 3A-3H show PAAN/MIF nuclease activity is required for prevention of α-syn PFF-induced neurotoxicity in neurons. […] See Donawho, et al. (2007) Clin. Cancer Res. 13:2728-37. Intensity of PAAN/MIF and AIF signal is shown in the graph. **P<0.005 versus the PBS control group in the nuclear (N) fraction, two-way ANOVA followed by Tukey's post hoc test. […] Intensity of AIF-bound PAAN/MIF is shown in the graph. *P<0.05, student's t-test. […] Scale bars, 20 μm. The white color in the merged images indicates the overlay of AIF, PAAN/MIF and Hoechst dye in the nucleus. The percentage of cells with nuclear localization of PAAN/MIF and AIF is shown in the graph. ***P<0.0005, student's t-test. […] Intensity of noncleaved genomic DNA is shown in the graph. ***P<0.0005, two-way ANOVA. […] Scale bar, 20 μm. […] Bars represent mean±s.e.m. ***P<0.0005, two-way ANOVA followed by Tukey's post hoc test (n=3). […] Bars represent mean±s.e.m. ***P<0.0005, two-way ANOVA followed by Tukey's post hoc test (n=5). […]
Subcellular fractionation. Subcellular fraction and quantification of relative levels of AIF and PAAN/MIF were performed as previously described. […] Each fractions were monitored by PARP-1 antibody (BD) for the nuclear fraction and HSP60 antibody (cell signaling) for the postnuclear fraction.

Test [2] has as its system SH-SY5Y cells. In words: MNNG-induced parthanatic cell death in SH-SY5Y cells (Alamar blue cell viability). To be noted: 50 μM MNNG for 15 min, viability after 24 h. The format is cell-based. The text has this:
We developed an assay to screen for PAAN/MIF nuclease inhibitors. Single-stranded PAAN/MIF nuclease DNA substrate (FIG. 10A) was amine modified on the 5′ end and immobilized on a plate. Hybridization with a biotin-labeled complementary oligonucleotide followed by addition of streptavidin conjugated horseradish peroxidase enzyme (HRP) leads to retention of HRP on the surface within each well in the presence of intact PAAN/MIF nuclease DNA substrate, which can be quantitatively detected through colorimetric change at 450 nm using the HRP substrate 3,3′,5,5′-tetramethylbenzidine (TMB). In the presence of WT PAAN/MIF, there is reduced signal, indicative of cleavage of the PAAN/MIF nuclease substrate, while the signal is not attenuated without recombinant PAAN/MIF (FIGS. 1 and 10B). […] Thus, the rapafucin library containing 45,000 macrocyclic compounds in 3,000 pools of 15 compounds was screened using this assay. […] Several pools were identified that inhibit PAAN/MIF nuclease activity from the primary screen (FIG. 4A). […] Nine pools of compounds were identified that both inhibit PAAN/MIF cleavage of the substrate and protect against MNNG-induced parthanatic cell death by greater than 70% (FIG. 10D). […] Next, the 90 individual compounds in the 6 pools were synthesized and further assessed for inhibition of PAAN/MIF nuclease activity and MNNG-induced parthanatic cell death. Among them 12 compounds (compounds 16-18, 26-28, 41, 56, 66, 67, 76, and 77) were identified that block MIF nuclease activity and MNNG-induced parthanatic cell death by greater than 60% (FIG. 10F). Dose dependence (0.1 to 1.0 μM) were assessed for the 12 compounds against MNNG-induced parthanatic cell death (FIG. 11A and Table 2) and inhibition of PAAN MIF nuclease activity against the RF (FIG. 111B) and PS30 substrates (FIG. 11C).
Cell culture, transfection, primary neuronal culture and treatment. SH-SY5Y cells (ATCC) were cultured in DMEM containing 10% fetal bovine serum and penicillin/streptomycin at 37° C. under 5% C02. The cells were transfected using PolyFect reagent (Qiagen). Parthanatos was induced by the treatment of 50 μM MNNG for 15 min in SH-SY5Y cells. ABT-888 or PAAN/MIF inhibitors were pretreated with indicated concentration 1 h before MNNG treatment and cell death were assessed after 24 h. Primary cortical neurons from WT, PAAN/MIF KO, E22Q KI or P1G KI embryos were prepared as previously described See Kam et al. (2018) Science 362:eaat8407. Briefly, the cortex was dissected and cultured at embryonic day 16 in neurobasal media supplemented with B-27, 0.5 mM L-glutamine, penicillin and streptomycin (Invitrogen). Primary neurons were infected with AAV2-control, AAV2-PAAN/MIF WT, AAV2-PAAN/MIF E22Q, AAV2-PAAN/MIF E22A or AAV2-MIF P1G (ViGene Biosciences) at days in vitro (DIV) 4-5. ABT-888 or PAAN/MIF inhibitors were applied to neurons 1 h before α-syn PFF treatment. The neuron growth medium was replaced with fresh medium alone or including inhibitors every 3-4 days. α-syn PFF was added at DIV 7 and further incubated for indicated times followed by the cell death assay or biochemical experiments.
Cell death and viability assessment. Primary cultured cortical neurons were treated with 5 μg/ml of α-syn PFF for 14 days and cell death was determined by staining of all nuclei with 7 μM Hoechst 33342 and dead cell nuclei with 2 μM propidium iodide (PI) (Invitrogen). The numbers of total and dead cells were counted with the Axiovision 4.6 software (Carl Zeiss). Cell viability was determined by fluorescence at an excitation wavelength 570 nm and an emission wavelength 585 nm using Alamar Blue (Invitrogen). […]

In test [3] the test system is HeLa cells or neuronal cells. In words: Cell death assay of Example 3 (MNNG, alamarBlue; protection against parthanatos, Table 4). The format is cell-based. To be noted: 1 μM test compound, MNNG-induced cell death, alamarBlue; 1 µM. The method, boiled down:
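HeLa or neuronal cells (1×10^4/well) were pretreated 1 h at 37° C with 1 μM compound, exposed to MNNG for 15 min, washed, then re-incubated 18 h with 1 μM compound. Viability was read by alamarBlue fluorescence (ex 560/em 590 nm). Cell death was expressed relative to control wells.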

Another test has as its target T1, MIF (Homo sapiens, UniProt P14174).
T1 sequence (P14174 1-115): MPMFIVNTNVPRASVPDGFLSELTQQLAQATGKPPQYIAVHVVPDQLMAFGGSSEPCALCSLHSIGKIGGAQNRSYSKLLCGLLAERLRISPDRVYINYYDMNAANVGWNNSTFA
Nature of the test: Nuclease assay of Example 3 (MIF inhibitory activity, Table 4). To be noted: nuclease assay of Example 3. The format is biochemical. The method, boiled down:
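Human genomic DNA (200 ng), pcDNA (200 ng) or PS^30-type substrates (1 μM) were incubated with MIF (0.25-8 μM final) in 10 mM Tris-HCl pH 7.0, 10 mM MgCl2, 1 mM DTT at 37 °C for 1 h (pcDNA, small substrates) or 4 h (genomic DNA). Cleavage was assessed by agarose or PAGE electrophoresis with EtBr staining and chemiluminescent detection of biotin-labelled DNA.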

For the compound `C[C@]1(c2nc3c(C(N)=O)cccc3[nH]2)CCCN1` [ABT-888, reference compound], in the test on SH-SY5Y cells [1], the “staurosporine (STS)-induced apoptotic cell death” value is reported as “do not inhibit”. Also, in the test on HT 22 cells, the “TNFα and Z-VAD-induced necroptosis” value is reported as “not prevented”. Besides, the “α-syn PFF-induced nuclear translocation of PAAN/MIF and AIF” value with cortical neurons is on record as “attenuated”. With `C=CC[C@@H]1/C=C(\C)C[C@H](C)C[C@H](OC)[C@H]2O[C@@](O)(C(=O)C(=O)N3CCCC[C@H]3C(=O)O[C@H](/C(C)=C/[C@@H]3CC[C@@H](O)[C@H](OC)C3)[C@H](C)[C@@H](O)CC1=O)[C@H](C)C[C@@H]2OC` [FK506, reference compound], in the test with SH-SY5Y cells [2], the “inhibition of MNNG-induced parthanatic cell death” value was “failed to inhibit”. On to `CN1C(=O)C(Cc2c[nH]c3ccccc23)NC1=S` (stereo not drawn) [Nec-1, necrostatin, reference compound], for which the “TNFα and Z-VAD-induced necroptosis” value in the test with HT 22 cells was “prevents”. Regarding `CC(NC(=O)C(NC(=O)OCc1ccccc1)C(C)C)C(=O)NC(CC(=O)O)C(=O)CF` (stereo not drawn) [Z-VAD, reference compound] (Cbz-Val-Ala-Asp-CH2F; configuration not given here), the “staurosporine (STS)-induced apoptotic cell death” value in the test on SH-SY5Y cells [1] is reported as “prevents”. As for `COc1ccc(CC[C@H]2OC(=O)[C@@H]3CCCCN3C(=O)C(=O)C(C)(C)COC(=O)C=CCCN(C)C(=O)[C@@H]3CCCN3C(=O)[C@H](COC(C)(C)C)N(C)C(=O)C(c3ccccc3)NC(=O)[C@H](C)N(C)C(=O)COc3cccc2c3)cc1OC` (stereo partly drawn) [compound 152], in test [3], the “(%) inhibition of cell death” value is on record as 43.0%. For the same compound, the “(%) inhibition of MIF nuclease activity” value on MIF was −2.4%. For `CO[C@H]1C[C@@H]2CC[C@@H](C)[C@@](O)(O2)C(=O)C(=O)N2CCCC[C@H]2C(=O)O[C@H]([C@H](C)C[C@@H]2CC[C@@H](O)[C@H](OC)C2)CC(=O)[C@H](C)/C=C(\C)[C@@H](O)[C@@H](OC)C(=O)[C@H](C)C[C@H](C)/C=C/C=C/C=C/1C` [rapamycin, reference compound], in the test on SH-SY5Y cells [2], the “inhibition of MNNG-induced parthanatic cell death” value is “failed to inhibit”.
